Measured values: patent publication US10125129B2 (priority 2016, dated 2018)
Where two headings read alike, the source gives them in different places.

Assays:
κ opioid receptor (KOR) = target: T1, κ opioid receptor (KOR) (Homo sapiens, UniProt P41145); experiment: cell-based; format: cell-based
T1 construct: expressed in transfected cells

μ opioid receptor (MOR) = target: T2, μ opioid receptor (MOR) (Homo sapiens, UniProt P35372); experiment: cell-based; format: cell-based
T2 construct: expressed in transfected cells

Sprague Dawley rats = experiment: Conditioned place preference assay; details: 5 mg/kg, i.p.
mice = experiment: Centrally mediated antinociceptive effects (tail-flick), i.p. doses, 10 s cutoff; format: in vivo; details: 1, 5, and 10 mg/kg, i.p.; 10 s cutoff

T2 sequence (P35372 whole entry): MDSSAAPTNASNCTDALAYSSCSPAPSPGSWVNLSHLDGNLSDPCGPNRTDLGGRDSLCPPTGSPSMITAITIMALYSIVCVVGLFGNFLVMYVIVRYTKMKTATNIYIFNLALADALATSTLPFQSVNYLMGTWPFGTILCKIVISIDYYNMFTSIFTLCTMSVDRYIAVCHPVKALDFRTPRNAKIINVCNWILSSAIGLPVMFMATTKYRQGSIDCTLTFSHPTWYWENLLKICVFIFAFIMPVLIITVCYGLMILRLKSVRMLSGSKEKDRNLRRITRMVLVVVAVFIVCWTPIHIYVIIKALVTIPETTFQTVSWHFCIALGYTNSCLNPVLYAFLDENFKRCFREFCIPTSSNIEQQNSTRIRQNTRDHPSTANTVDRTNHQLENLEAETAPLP
T1 sequence (P41145 whole entry): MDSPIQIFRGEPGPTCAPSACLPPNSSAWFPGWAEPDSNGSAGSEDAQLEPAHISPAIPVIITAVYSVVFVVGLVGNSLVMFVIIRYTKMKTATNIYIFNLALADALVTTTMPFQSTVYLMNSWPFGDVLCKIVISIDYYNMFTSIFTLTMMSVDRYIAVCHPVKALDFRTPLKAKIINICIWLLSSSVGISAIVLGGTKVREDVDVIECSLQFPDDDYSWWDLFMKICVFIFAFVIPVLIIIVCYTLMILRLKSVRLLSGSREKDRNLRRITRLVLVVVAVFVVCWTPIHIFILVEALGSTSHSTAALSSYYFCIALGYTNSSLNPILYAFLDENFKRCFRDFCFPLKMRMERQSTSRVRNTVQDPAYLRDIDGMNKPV

| SMILES | EC50 (μ opioid receptor (MOR); Series 2 EC50) [nM] | EC50 (μ opioid receptor (MOR); EC50) [nM] | other results |
| --- | --- | --- | --- |
| COC(=O)[C@@H]1C[C@H](OC(=O)c2ccccc2)C(=O)[C@H]2[C@@]1(C)CC[C@H]1C(=O)O[C@H](c3ccoc3)C[C@]21C [Compound 2, herkinorin, reference compound] | – | – | EC50 (κ opioid receptor (KOR); read-out: EC50 ± SEM κ): 170 ± 30 nM; Selectivity μ/κ (μ opioid receptor (MOR)): 4.4; selectivity for the MOR over KOR (μ opioid receptor (MOR)): 4.4 fold; EC50 (μ opioid receptor (MOR); EC50 ± SEM μ): 39 ± 4 nM; EC50 (μ opioid receptor (MOR); Series 1 EC50): 42 ± 4 nM; conditioned place preference (Sprague Dawley rats): Neither kurkinorin (5) nor herkinorin (2) were significantly different to vehicle; antinociceptive effects (mice): no significant antinociceptive effects |
| COC(=O)[C@@H]1C[C@H](NC(=O)c2ccccc2)C(=O)[C@H]2[C@@]1(C)CC[C@H]1C(=O)O[C@H](c3ccoc3)C[C@]21C [Compound 3, reference compound] | – | – | EC50 (κ opioid receptor (KOR)): > 10000 nM; Selectivity μ/κ (μ opioid receptor (MOR)): >3 000; EC50 (μ opioid receptor (MOR); EC50 ± SEM μ): 3 ± 0.4 nM |
| COC(=O)[C@@H]1C=C(OC(=O)c2ccccc2OC)C(=O)[C@H]2[C@@]1(C)CC[C@H]1C(=O)O[C@H](c3ccoc3)C[C@]21C [Series 2 Entry 14, (2S,4aR,6aR,7R,10aR,10bR)-Methyl 2-(furan-3-yl)-9-((2-methoxybenzoyl)oxy)-6a,10b-dimethyl-4,10-dioxo-2,4,4a,5,6,6a,7,10,10a,10b-decahydro-1H-benzo[f]isochromene-7-carboxylate] | 2000 ± 1000 | – | – |
| COC(=O)[C@@H]1C=C(OC(=O)c2cccc(OC)c2)C(=O)[C@H]2[C@@]1(C)CC[C@H]1C(=O)O[C@H](c3ccoc3)C[C@]21C [Series 2 Entry 15, (2S,4aR,6aR,7R,10aR,10bR)-Methyl 2-(furan-3-yl)-9-((3-methoxybenzoyl)oxy)-6a,10b-dimethyl-4,10-dioxo-2,4,4a,5,6,6a,7,10,10a,10b-decahydro-1H-benzo[f]isochromene-7-carboxylate] | – | – | EC50 (μ opioid receptor (MOR); read-out: Series 2 EC50): 11 ± 2 nM |
| COC(=O)[C@@H]1C=C(OC(=O)c2ccc(OC)cc2)C(=O)[C@H]2[C@@]1(C)CC[C@H]1C(=O)O[C@H](c3ccoc3)C[C@]21C [Series 2 Entry 16, (2S,4aR,6aR,7R,10aR,10bR)-Methyl 2-(furan-3-yl)-9-((4-methoxybenzoyl)oxy)-6a,10b-dimethyl-4,10-dioxo-2,4,4a,5,6,6a,7,10,10a,10b-decahydro-1H-benzo[f]isochromene-7-carboxylate] | – | – | EC50 (μ opioid receptor (MOR); read-out: Series 2 EC50): 8 ± 3 nM |
| COC(=O)[C@@H]1C=C(OC(=O)c2ccccn2)C(=O)[C@H]2[C@@]1(C)CC[C@H]1C(=O)O[C@H](c3ccoc3)C[C@]21C [Series 2 Entry 17, (2S,4aR,6aR,7R,10aR,10bR)-2-(Furan-3-yl)-7-(methoxycarbonyl)-6a,10b-dimethyl-4,10-dioxo-2,4,4a,5,6,6a,7,10,10bdecahydro-1H-benzo[f]isochromen-9-yl picolinate] | 410 ± 50 | – | – |
| COC(=O)[C@@H]1C=C(OC(=O)c2cccnc2)C(=O)[C@H]2[C@@]1(C)CC[C@H]1C(=O)O[C@H](c3ccoc3)C[C@]21C [Series 2 Entry 18, (2S,4aR,6aR,7R,10aR,10bR)-2-(Furan-3-yl)-7-(methoxycarbonyl)-6a,10b-dimethyl-4,10-dioxo-2,4,4a,5,6,6a,7,10,10a,10b-decahydro-H-benzo[f]isochromen-9-yl nicotinate] | 3.3 ± 0.8 | – | – |
| COC(=O)[C@@H]1C=C(OC(=O)c2ccncc2)C(=O)[C@H]2[C@@]1(C)CC[C@H]1C(=O)O[C@H](c3ccoc3)C[C@]21C [Series 2 Entry 19, (2S,4aR,6aR,7R,10aR,10bR)-2-(Furan-3-yl)-7-(methoxycarbonyl)-6a,10b-dimethyl-4,10-dioxo-2,4,4a,5,6,6a,7,10,10a,10bdecahydro-1H-benzo[f]isochromen-9-yl isonicotinate] | 6 ± 1 | – | – |
| COC(=O)[C@@H]1C=C(OC(=O)c2cccs2)C(=O)[C@H]2[C@@]1(C)CC[C@H]1C(=O)O[C@H](c3ccoc3)C[C@]21C [Series 2 Entry 20, (2S,4aR,6aR,7R,6aR,7R,10aR,10bR)-Methyl 2-(furan-3-yl)-6a,10bdimethyl-4,10-dioxo-9-((thiophene-2-carbonyl)oxy)-2,4,4a,5,6,6a,7,10,10a,10b-decahydro-1H-benzo[f]isochromene-7-carboxylate] | 1.4 ± 0.8 | – | – |
| COC(=O)[C@@H]1C=C(OC(=O)c2ccsc2)C(=O)[C@H]2[C@@]1(C)CC[C@H]1C(=O)O[C@H](c3ccoc3)C[C@]21C [Series 2 Entry 21, (2S,4aR,6aR,7R,10aR,10bR)-Methyl 2-(furan-3-yl)-6a,10bdimethyl-4,10-dioxo-9-((thiophene-3-carbonyl)oxy)-2,4,4a,5,6,6a,7,10,10a,10b-decahydro-1H-benzo[f]isochromene-7-carboxylate] | 1.3 ± 0.9 | – | – |
| COC(=O)[C@@H]1C=C(OC(=O)c2cc3ccccc3o2)C(=O)[C@H]2[C@@]1(C)CC[C@H]1C(=O)O[C@H](c3ccoc3)C[C@]21C [Series 2 Entry 22, (2S,4aR,6aR,7R,10aR,10bR)-Methyl 9-((benzofuran-2-carbonyl)oxy)-2-(furan-3-yl)-6a,10-dimethyl-4,10-dioxo-2,4,4a,5,6,6a,7,10,10a,10bdecahydro-1H-benzo[f]isochromene-7-carboxylate] | 31 ± 9 | – | – |
| COC(=O)[C@@H]1C=C(OC(=O)c2cccc(O)c2)C(=O)[C@H]2[C@@]1(C)CC[C@H]1C(=O)O[C@H](c3ccoc3)C[C@]21C [Table 3 Entry 2, (2S,4aR,6aR,7R,10aR,10bR)-Methyl 2-(furan-3-yl)-9-((3-hydroxybenzoyl)oxy)-6a,10b-dimethyl-4,10-dioxo-2,4,4a,5,6,6a,7,10,10a,10bdecahydro-1H-benzo[f]isochromene-7-carboxylate] | – | 1.3 ± 0.3 | melting point: 124 to 126 °C |
| COC(=O)[C@@H]1C=C(OC(=O)c2ccc(O)cc2)C(=O)[C@H]2[C@@]1(C)CC[C@H]1C(=O)O[C@H](c3ccoc3)C[C@]21C [Table 3 Entry 3, (2S,4aR,6aR,7R,10aR,10bR)-Methyl 2-(furan-3-yl)-9-((4-hydroxybenzoyl)oxy)-6a,10b-dimethyl-4,10-dioxo-2,4,4a,5,6,6a,7,10,10a,10b-decahydro-1H-benzo[f]isochromene-7-carboxylate] | – | 0.83 ± 0.04 | melting point: 136 to 139 °C |
| COC(=O)[C@@H]1C=C(OC(=O)Cc2ccccc2)C(=O)[C@H]2[C@@]1(C)CC[C@H]1C(=O)O[C@H](c3ccoc3)C[C@]21C [Table 3 Entry 4, (2S,4aR,6aR,7R,10aR,10bR)-Methyl 2-(furan-3-yl)-6a,10bdimethyl-4,10-dioxo-9-(2-phenylacetoxy)-2,4,4a,5,6,6a,7,10a,10b-decahydro-1Hbenzo[f]isochromene-7-carboxylate] | – | 130 ± 50 | – |
| COC(=O)[C@@H]1C=C(OC(=O)CCc2ccccc2)C(=O)[C@H]2[C@@]1(C)CC[C@H]1C(=O)O[C@H](c3ccoc3)C[C@]21C [Table 3 Entry 5, (2S,4aR,6aR,7R,10 aR,10bR)-Methyl 2-(furan-3-yl)-6a,10bdimethyl-4,10-dioxo-9-((3-phenylpropanoyl)oxy)-2,4,4a,5,6,6a,7,10,10a,10b-decahydro-1H-benzo[f]isochromene-7-carboxylate] | – | 500 ± 200 | – |
| COC(=O)[C@@H]1C=C(OC(=O)/C=C/c2ccccc2)C(=O)[C@H]2[C@@]1(C)CC[C@H]1C(=O)O[C@H](c3ccoc3)C[C@]21C [Table 3 Entry 6, (2S,4aR,6aR,7R,10aR,10bR)-Methyl 9-(cinnamoyloxy)-2-(furan-3-yl)-6a,10b-dimethyl-4,10-dioxo-2,4,4a,5,6,6a,7,10,10a,10b-decahydro-1Hbenzo[f]isochromene-7-carboxylate] | – | 30 ± 10 | – |
| COC(=O)[C@@H]1C=C(OC(=O)c2cscn2)C(=O)[C@H]2[C@@]1(C)CC[C@H]1C(=O)O[C@H](c3ccoc3)C[C@]21C [Table 3 Entry 7, (2S,4aR,6aR,7R,10aR,10bR)-2-(Furan-3-yl)-7-(methoxycarbonyl)-6a,10b-dimethyl-4,10-dioxo-2,4,4a,5,6,6a,7,10,10a,10b-decahydro-1H-benzo[f]isochromen-9-yl thiazole-4-carboxylate] | – | 8 ± 3 | – |
| COC(=O)[C@@H]1C=C(OC(=O)c2cncs2)C(=O)[C@H]2[C@@]1(C)CC[C@H]1C(=O)O[C@H](c3ccoc3)C[C@]21C [Table 3 Entry 8, (2S,4aR,6aR,7R,10aR,10bR)-2-(Furan-3-yl)-7-(methoxycarbonyl)-6a,10b-dimethyl-4,10-dioxo-2,4,4a,5,6,6a,7,10,10a,10b-decahydro-1H-benzo[f]isochromen-9-yl thiazole-5-carboxylate] | – | > 10000 | – |
| COC(=O)[C@@H]1C=C(OC(=O)c2cocn2)C(=O)[C@H]2[C@@]1(C)CC[C@H]1C(=O)O[C@H](c3ccoc3)C[C@]21C [Table 3 Entry 9, (2S,4aR,6aR,7R,10aR,10bR)-2-(Furan-3-yl)-7-(methoxycarbonyl)-6a,10b-dimethyl-4,10-dioxo-2,4,4a,5,6,6a,10,10a,10b-decahydro-1H-benzo[f]isochromen-9-yl oxazole-4-carboxylate] | – | 30 ± 2 | – |
| COC(=O)[C@@H]1C=C(OC(=O)c2cnco2)C(=O)[C@H]2[C@@]1(C)CC[C@H]1C(=O)O[C@H](c3ccoc3)C[C@]21C [Table 3 Entry 10, (2S,4aR,6aR,7R,10aR,10bR)-2-(Furan-3-yl)-7-(methoxycarbonyl)-6a,10b-dimethyl-4,10-dioxo-2,4,4a,5,6,6a,7,10,10a,10b-decahydro-1H-benzo[f]isochromen-9-yl oxazole-5-carboxylate] | – | > 10000 | – |
| COC(=O)[C@@H]1C=C(OC(=O)c2cncnc2)C(=O)[C@H]2[C@@]1(C)CC[C@H]1C(=O)O[C@H](c3ccoc3)C[C@]21C [Table 3 Entry 11, (2S,4aR,6aR,7R,10aR,10bR)-2-(Furan-3-yl)-7-(methoxycarbonyl)-6a,10b-dimethyl-4,10-dioxo-2,4,4a,5,6,6a,7,10,10a,10b-decahydro-1H-benzo[f]isochromen-9-yl pyrimidine-5-carboxylate] | – | 6 ± 1 | – |
| COC(=O)[C@@H]1C=C(OC(=O)c2cc3ccccc3s2)C(=O)[C@H]2[C@@]1(C)CC[C@H]1C(=O)O[C@H](c3ccoc3)C[C@]21C [Table 3 Entry 13] | – | 6 ± 1 | – |
